In paper PMC6713100, “Anticancer sulfonamide hybrids that inhibit bladder cancer cells growth and migration as tubulin polymerisation inhibitors” (Journal of Enzyme Inhibition and Medicinal Chemistry, 2019):

Assays:
MCF-7 = experiment: CCK8 antiproliferative assay, breast cancer cells; assay type: cell-based; details: Homo sapiens, MCF7, treatment for 48 h, means of three independent experiments
SNU-423 = experiment: CCK8 antiproliferative assay, liver cancer cells; assay type: cell-based; details: Homo sapiens, treatment for 48 h, means of three independent experiments
Method: (§1) Breast cancer cells (MDA-MB-453), liver cancer cells (SNU-423), and bladder cancer cells (UM-UC-3, RT-112, RT4, T24) were purchased from the Shanghai culture company, and cultured at 37 °C in an atmosphere containing 5% CO2. 4,000 cells per well were seeded into a 96-well plate for 24 h and compounds were added to cluture 48 h. Next, 6 mg/ml CCK8 (20 µl) per well was added to explore the cell survival.
(§2) CCK8 method was used to investigate the anticancer activity in vitro of sulfonamide-dithiocarbamate hybrids 13a–13d against cancer cells for 48 h. MDA-MB-453 (breast cancer cells), SNU-423 (liver cancer cells) and RT-112 (bladder cancer cells) were selected to explore the antiproliferative activity. In this work, 5-fluorouracil (5-Fu) was used as the control drug.

RT-112 = experiment: CCK8 antiproliferative assay, bladder cancer cells RT-112; assay type: cell-based; details: Homo sapiens, treatment for 48 h
Method: as §1, §2
(§3) In order to explore the antiproliferation ability, four bladder cancer cell lines (UM-UC-3, RT-112, RT4 and T24) were selected and treated with the hybrid 13d in the 24-well plate for 48 h and 72 h. […] Compared with the cell proliferation of 48 h, the cell proliferation of 72 h was decreased.

tubulin = experiment: Tubulin polymerisation assay in vitro; assay type: biochemical; details: for IC50: 6 mg/ml tubulin, PEM buffer, 37 °C, read-out: IC50 tubulin polymerisation inhibitory activity in vitro
Method: (§4) An amount of 6 mg/ml tubulin was resuspended in the PEM buffer (80 mM PIPES (pH 6.9), 1 mM EGTA, 0.5 mM MgCl2, […], 10.2% (v/v) glycerol) and then was preincubated with a sulfonamide-dithiocarbamate hybrid 13d on the ice. The reaction was monitored by a spectrophotometer (Beijng Tianhe Company) at 37 °C to obtain the results of tubulin polymerisation in vitro. RT-112 cells were treated with sulfonamide-dithiocarbamate hybrid 13d for 48 h. Then, slices were fixed by 4% paraformaldehyde for 20 min and washed by PBS for five times. 0.6% Triton-X-100 was added and 0.1% BSA was used to block. β-tubulin antibody was added to incubate overnight at 4 °C. DAPI was used to stain and then images were captured.
Tubulin polymerisation assay investigated that compound 13d inhibited tubulin polymerisation in a concentration dependent manner.

MCF-7 cells = system: MCF-7 cells; parameters: method as in PMID 28802125; details: read-out: IC50 MCF-7 antiproliferative activity; cited from earlier work
[1] = system: MDA-MB-453, SNU-423 and RT-112; experiment: CCK8 antiproliferative assay, all three cancer cells; assay type: cell-based; details: CCK8, 48 h; read-out: IC50 against all three cancer cells
Method: as §1, §2

HT-29 cell line = system: HT-29 cell line; parameters: method as in PMID 26774930; details: read-out: IC50 HT-29 cell viability; cited from earlier work
UM-UC-3 = experiment: Cell proliferation of bladder cancer cells UM-UC-3; assay type: cell-based; details: Homo sapiens, UMUC3; treatment for 48 h
Method: as §1, §3

RT4 = experiment: Cell proliferation of bladder cancer cells RT4; assay type: cell-based; details: Homo sapiens, RT-4; treatment for 48 h
Method: as §1, §3

T24 = experiment: Cell proliferation of bladder cancer cells T24; assay type: cell-based; details: Homo sapiens, T-24; treatment for 48 h
Method: as §1, §3

RT-112 cells [2] = experiment: Transwell migration assay; assay type: cell-based; details: 48 h
Method: Transwell chamber was used to do migration assay according to the reported references[17]^,[18]. Ten thousand RT-112 cells containing compound 13d were seeded in the top chambers for 24 h incubation. The bottom chambers were fixed and stained with crystal violet for 2 h. Finally, the chambers were washed with water, and the top membrane was left to dry.
Based on the antiproliferative activity results, compound 13d was selected to investigate the anticancer mechanisms against the RT-112 cell line. Corning transwell plate was used to do migration assay against RT-112 cells for 48 h. With the treatment of sulfonamide-dithiocarbamate hybrid 13d at 0.5, 1 and 2 µM, the migration rate of RT-112 cells was 76%, 40% and 29%, respectively.

[3] = system: E-cadherin, N-cadherin, Vimentin, Snail and Slung in RT-112 cells; experiment: Western blot of migration-related proteins; assay type: cell-based; details: 48 h, 0.5, 1 and 2 µM
Method: RT-112 cells were treated with compound 13d and then lysed in a RIPA lysis buffer. The protein samples of RT-112 cells were electrophoresed on SDS-PAGE. Nextly, targeted proteins were transferred to PVDF membrane and incubated with antibodies (E-cadherin, N-cadherin, Vimentin, Snail and Slung). The markers were visualised by chemiluminescence detection reagents.
To further characterise the migration effect of sulfonamide-dithiocarbamate hybrid 13d, the expression levels of migration-related proteins (E-cadherin, N-cadherin, Vimentin, Snail and Slung) were investigated against RT-112 cells. Compound 13d was treated for 48 h at concentrations of 0.5, 1 and 2 µM, respectively. […] In addition, hybrid 13d increased the expression of E-cadherin in a concentration manner.

RT-112 cells [4] = experiment: Immunostaining of microtubules (β-tubulin antibody); assay type: cell-based
Method: as §4
Tubulin polymerisation inhibitory effects of the sulfonamide-dithiocarbamate hybrid 13d were further explored by the immunofluorescent staining in RT-112 cells. […] However, after the exposure to 0.25 µM of compound 13d, the microtubule organisation in the cytosol were disrupted.

RT-112 cells [5] = experiment: RT-112 xenograft nude mouse model; assay type: in vivo, nude mice; details: 80 mg/kg intragastric, every day for 21 days
Method: In vivo experiments were processed according to guidelines established by the ethics committee of the 4th affiliated hospital of CMU. Mice were implanted with RT-112 cells (1.5 × 10^7 cells per mouse) on the right flank of nude mice. The mice were divided into the saline group and sulfonamide-dithiocarbamate hybrid 13d (80 mg/kg) group (n = 5 mice for each group). Intragastric administration of hybrid 13d was performed every day for a period of 21 days.
In order to investigate the tumor growth effects of compound 13d, the xenograft nude mouse of RT-112 cells were established.

T47D cells = system: T47D cells; parameters: method as in PMID 28212337; details: read-out: IC50 T47D anticancer activity in vitro; cited from earlier work

`COc1cc(N(CCCSC(=S)N2CCN(CCO)CC2)S(=O)(=O)c2cccc3cccnc23)cc(OC)c1OC` [Compound 13c, 3-(N-(3,4,5-trimethoxyphenyl)quinoline-8-sulfonamido)propyl-4–(2-hydroxyethyl)piperazine-1-carbodithioate] gave an IC50 (MCF-7) of 4.2 ± 0.1 µM, an IC50 (SNU-423) of 3.6 ± 0.7 µM and an IC50 (RT-112) of 4.1 ± 0.6 µM. The IC50 (tubulin) was 3.4 µM, the tubulin polymerisation inhibition (tubulin; at 2 µM) was “weak inhibition” and the tubulin polymerisation inhibition (tubulin; at 6 µM) was “significantly inhibited”. The melting point was 106 to 108 °C.

For `NS(=O)(=O)c1ccc(/N=C2\NC(=O)/C(=C3/C(=O)Nc4ccc(Cl)cc43)S2)cc1` [Compound 3], the IC50 (MCF-7 cells) is given as 3.96 µM.

In the case of `COc1cc(N(CCCSC(=S)N2CCN(C)CC2)S(=O)(=O)c2cccc3cccnc23)cc(OC)c1OC` [Compound 13a, 3-(N-(3,4,5-trimethoxyphenyl)quinoline-8-sulfonamido)propyl-4-methylpiperazine-1-carbodithioate], the IC50 (MCF-7) is reported as 6.4 ± 1.2 µM, the IC50 (SNU-423) is reported as 8.7 ± 0.9 µM and the IC50 (RT-112) is reported as 7.8 ± 0.4 µM. It also gave a melting point of 96 to 98 °C.

In the case of `CCN1CCN(C(=S)SCCCN(c2cc(OC)c(OC)c(OC)c2)S(=O)(=O)c2cccc3cccnc23)CC1` [Compound 13b, 3-(N-(3,4,5-trimethoxyphenyl)quinoline-8-sulfonamido)propyl-4-ethylpiperazine-1-carbodithioate], the IC50 (MCF-7) is reported as 8.5 ± 0.7 µM, the IC50 (SNU-423) is reported as 5.4 ± 0.3 µM and the IC50 (RT-112) is reported as 6.8 ± 0.7 µM. The melting point was 131 to 133 °C.

In the case of `COc1cc(N(CCCBr)S(=O)(=O)c2cccc3cccnc23)cc(OC)c1OC` [Compound 12, N-(3-bromopropyl)-N-(3,4,5-trimethoxyphenyl)quinoline-8-sulfonamide], the IC50 (MCF-7) is reported as over 40 µM, the IC50 (SNU-423) is reported as over 40 µM and the IC50 (RT-112) is reported as over 40 µM. The IC50 [1] was over 40 µM and the melting point was 129 to 131 °C.

For `NS(=O)(=O)c1ccc(Nc2nc(-c3ccc(Cl)cc3)nc3ccccc23)cc1` [Compound 2], the IC50 (HT-29 cell line) is given as 5.45 µM.

`COc1cc(NS(=O)(=O)c2cccc3cccnc23)cc(OC)c1OC` [Compound 11, N-(3,4,5-trimethoxyphenyl)quinoline-8-sulfonamide] showed an IC50 (MCF-7) of over 40 µM, an IC50 (SNU-423) of over 40 µM and an IC50 (RT-112) of over 40 µM. It also gave an IC50 [1] of over 40 µM and a melting point of 181 to 183 °C.

For `COc1cc(N(CCCSC(=S)N2CCN(C(C)=O)CC2)S(=O)(=O)c2cccc3cccnc23)cc(OC)c1OC` [Compound 13d, 3-(N-(3,4,5-trimethoxyphenyl)quinoline-8-sulfonamido)propyl-4-acetylpiperazine-1-carbodithioate], the IC50 (MCF-7) was 2.8 ± 0.2 µM, the IC50 (SNU-423) was 3 ± 0.1 µM and the IC50 (RT-112) was 0.7 ± 0.1 µM. The IC50 (UM-UC-3) was 0.9 µM, the IC50 (RT4) was 1.9 µM and the IC50 (T24) was 2.6 µM. The “migration rate of RT-112 cells” value (RT-112 cells [2]; 13d at 0.5 µM) was 76%, the “migration rate of RT-112 cells” value (RT-112 cells [2]; 13d at 1 µM) was 40% and the “migration rate of RT-112 cells” value (RT-112 cells [2]; 13d at 2 µM) was 29%. For the same compound, the “expression of E-cadherin” value [3] was “increased”, the “expression of N-cadherin” value [3] was “decreased” and the “expression of Slung” value [3] was “decreased”. The “expression of Snail” value [3] was “decreased”, the “expression of Vimentin” value [3] was “decreased” and the IC50 (tubulin) was 2.9 µM. For the same compound, the tubulin polymerisation inhibition (tubulin; at 2 µM) was “weak inhibition”, the tubulin polymerisation inhibition (tubulin; at 6 µM) was “significantly inhibited” and the “microtubule organisation in the cytosol” value (RT-112 cells [4]; 0.25 µM) was “disrupted”. The “changes of the mitotic spindles” value (RT-112 cells [4]; 0.5 µM) was “more clearly observed”, the average tumor weight (RT-112 cells [5]) was 0.51 ± 0.21 g and the “body weights versus control group” value (RT-112 cells [5]) was “no significant difference”. The “inhibitory rate (tumor weight)” value (RT-112 cells [5]) was 66.67%, the “tumor volume versus control group” value (RT-112 cells [5]) was “obviously less than that of the control group” and the melting point was 128 to 129 °C.

In the case of `C#CCSc1ccnc2c(S(=O)(=O)N(C)CC#C)cccc12` [Compound 4], the IC50 (T47D cells) is listed as 0.27 µM.

In the case of `O=c1[nH]cc(F)c(=O)[nH]1` [Compound 5-Fu, 5-fluorouracil, reference compound], the IC50 (MCF-7) is reported as 7.4 ± 0.5 µM, the IC50 (SNU-423) is reported as 10.8 ± 0.7 µM and the IC50 (RT-112) is reported as 13.6 ± 0.2 µM.
